Here are results for ten compounds from ChEMBL document CHEMBL1201862, “PubChem BioAssay data set” (2004).

Holding throughout (experiment): NCI anticancer screen, dose series, 48 h
Assay [1] relates to HL-60.
Assay [2] relates to 786-0.
Assay [3] concerns HT-29.
Assay [4] has as its system MDA-N.
Assay [5] has as its system LOX IMVI.
In assay [6] the test system is MCF7.
Assay [7] deals with COLO 205.
The test system of assay [8] is MDA-MB-435.
Assay [9] concerns PC-3.
The subject of assay [10] is DU-145.
In assay [11] the test system is K562.
The subject of assay [12] is NCI-H460.
The subject of assay [13] is SF-295.
Assay [14] relates to SN12C.
The test system of assay [15] is OVCAR-8.
Assay [16] has as its system A498.
The subject of assay [17] is IGROV-1.
Assay [18] deals with UACC-62.
For assay [19], the system named is SF-268.
Assay [20] relates to UACC-257.

Each structure is given as a SMILES string.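 How tested: cells in 96-well plates exposed to compound for 48 hours at five concentrations. GI50 is the concentration that inhibits growth by half.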 Calls of active or inactive are those of the source. No stated cut-off is given here; in the data, active = GI50 up to about 1.1 µM and inactive = higher.

On to `Cc1nc2ccccc2c(=O)n1NC(=O)c1ccc([N+](=O)[O-])cc1`, for which the GI50 in [1], in assay [2], in assay [3], in [4], in assay [5] and in assay [6] was > 100 µM (inactive) in each case. In addition, the GI50 in assay [7], in assay [8], in assay [9], in assay [10], in [11] and in assay [12] was > 100 µM (inactive) each time. Besides, the GI50 in assay [13] was > 100 µM (inactive); in assay [14], > 100 µM (inactive); in assay [15] it was > 100 µM (inactive); in [16] it was 56.4 µM (inactive); in assay [17], > 100 µM (inactive); in assay [18] it was > 100 µM (inactive). For the same compound, the GI50 in assay [19] and in assay [20] was > 100 µM (inactive) throughout.
Take `CCOP(=O)(OCC)Oc1c(OC)c2[nH]c(C(=O)OC)cc2c2c(C(=O)O)c[nH]c12`: the GI50 in assay [1], in [2], in assay [3], in assay [4], in assay [5] and in assay [6] was > 100 µM (inactive) throughout. Moreover, the GI50 in assay [7], in assay [8], in [9], in assay [10], in assay [11] and in assay [12] was > 100 µM (inactive) each time. Also, the GI50 in [13], in assay [14], in assay [15], in assay [16], in assay [17] and in assay [18] was > 100 µM (inactive) in each case. In addition, the GI50 in [19] and in assay [20] was > 100 µM (inactive) throughout.
As for `[N-]=[N+]=Nc1ccccc1C(=O)N1C(=O)c2ccccc2C(=O)N(C(=O)c2ccccc2N=[N+]=[N-])c2ccccc21`, the GI50 in assay [1] is > 10 µM (inactive); in [2] it was 28.4 µM (inactive); in assay [3], 98.6 µM (inactive); in assay [4], 59.3 µM (inactive); in assay [5], 19.8 µM (inactive); in assay [6] it was 52.2 µM (inactive). The GI50 in assay [7] is 34.1 µM (inactive); in [8], 43.5 µM (inactive); in assay [9] it was 21.4 µM (inactive); in [10] it was > 100 µM (inactive); in assay [11] it was 30.3 µM (inactive); in assay [12], 66.7 µM (inactive). Moreover, the GI50 was 41.9 µM (inactive) in assay [13]; 82.8 µM (inactive) in [14]; 97.3 µM (inactive) in assay [15]; 42.2 µM (inactive) in [16]; 46.9 µM (inactive) in assay [17]; 34.4 µM (inactive) in assay [18]. For the same compound, the GI50 was 71 µM (inactive) in assay [19] and 82.4 µM (inactive) in [20].
Turning to `C=C1C(=O)O[C@H]2C[C@@H]1[C@@H](O)[C@H](O)[C@@H](C)CCCC(C)=CCC[C@@]2(C)O`, the GI50 in [1] is 15.1 µM (inactive); in assay [2], 15.8 µM (inactive); in assay [4] it was 9.86 µM (inactive); in assay [5], 18.5 µM (inactive); in assay [6], 10.1 µM (inactive); in [7], 7.03 µM (inactive). Moreover, the GI50 was 17.7 µM (inactive) in assay [8]; 19.9 µM (inactive) in [9]; 42.7 µM (inactive) in [10]; 5.55 µM (inactive) in assay [11]; 23 µM (inactive) in assay [12]; 54.7 µM (inactive) in assay [13]. The GI50 in assay [14] was 17 µM (inactive); in [15], > 10 µM (inactive); in [16], 51.2 µM (inactive); in assay [17] it was 24.3 µM (inactive); in assay [18] it was 16.6 µM (inactive); in assay [19] it was 22.6 µM (inactive). The GI50 in assay [20] is 15.2 µM (inactive).
Take `O=C1Nc2ccccc2NC1C1OC(c2ccccc2)=CC1=O` (configuration not stated): the GI50 in assay [1], in assay [2], in [3], in [4], in assay [5] and in assay [6] was > 100 µM (inactive) each time. The GI50 in assay [7], in assay [8], in assay [9], in assay [10], in assay [11] and in [12] was > 100 µM (inactive) throughout. Moreover, the GI50 in assay [13], in [15], in assay [16], in assay [17], in [18] and in assay [19] was > 100 µM (inactive) throughout. The GI50 in [20] was 40.8 µM (inactive).
In the case of `CC(=O)Oc1c(C)c2c(O)c3c1C1=C(OCOC1=C(C)C3=O)/C(C)=C/C(C)(O)C(O)C(C)C(O)C1C(=O)OC(C(C)C1O)C(C)(O)/C=C\C=C(C)C(=O)N2` (configuration not stated), the GI50 in [1] is 3.25 µM (inactive); in assay [2] it was 53.7 µM (inactive); in [3], > 100 µM (inactive); in assay [4], > 100 µM (inactive); in [5], 27.4 µM (inactive); in assay [6] it was 37.1 µM (inactive). Further, the GI50 in assay [7] is 86.5 µM (inactive); in [8], > 100 µM (inactive); in assay [9], 27.5 µM (inactive); in assay [10], 45.4 µM (inactive); in assay [11] it was 21.7 µM (inactive); in assay [12], > 100 µM (inactive). Besides, the GI50 in assay [13] is 38.3 µM (inactive); in assay [14], 35 µM (inactive); in assay [15] it was 70 µM (inactive); in assay [16], 15.1 µM (inactive); in assay [17], 5.66 µM (inactive); in [18], 30.8 µM (inactive). In addition, the GI50 in [19] was 31.8 µM (inactive); in assay [20], > 100 µM (inactive).
With `CCCC(=O)OC1CC(n2cc(F)c(=O)[nH]c2=O)OC1CO` (configuration not stated), the GI50 was 0.646 µM (active) in assay [1]; 0.342 µM (active) in [2]; 1.29 µM (inactive) in assay [3]; 1.63 µM (inactive) in [4]; 0.0149 µM (active) in assay [5]; 0.036 µM (active) in assay [6]. Besides, the GI50 in assay [7] is 4.71 µM (inactive); in assay [8], 2.79 µM (inactive); in assay [9], 1.48 µM (inactive); in assay [10] it was 0.182 µM (active); in assay [11], 1.74 µM (inactive); in assay [12], 0.0948 µM (active). The GI50 is 0.148 µM (active) in assay [13]; 0.317 µM (active) in assay [14]; 0.171 µM (active) in assay [15]; 2.07 µM (inactive) in assay [16]; > 5.89 µM (inactive) in [17]; 0.0863 µM (active) in assay [18]. Moreover, the GI50 in [19] was 0.0356 µM (active); in assay [20], > 4.49 µM (inactive).
With `Cc1ccc2[nH]/c(=N/S(=O)(=O)c3cc(C)c(Cl)cc3S)[nH]c2c1`, the GI50 in assay [1] is 28.8 µM (inactive); in assay [2] it was 45.9 µM (inactive); in assay [3], > 100 µM (inactive); in assay [4], 87.5 µM (inactive); in [5] it was 25.4 µM (inactive); in assay [6], 64.1 µM (inactive). The GI50 in assay [7] was 58.5 µM (inactive); in assay [8], 28.4 µM (inactive); in [9] it was 50 µM (inactive); in [10], > 100 µM (inactive); in [11] it was 50.2 µM (inactive); in assay [12] it was 16.4 µM (inactive). Besides, the GI50 in [13] was 49.5 µM (inactive); in assay [14] it was > 100 µM (inactive); in assay [15] it was 93.1 µM (inactive); in assay [16] it was 52.8 µM (inactive); in [17], 34.4 µM (inactive); in assay [18], > 100 µM (inactive). The GI50 in assay [19] is 39.8 µM (inactive); in assay [20], > 100 µM (inactive).
Consider `COc1cc2c(cc1OC)-c1cc3cc(OC)c(OC)cc3c(C)[n+]1CC2.O=C([O-])CS(=O)(=O)O`, for which the GI50 is > 100 µM (inactive) in assay [1]; > 100 µM (inactive) in [2]; > 100 µM (inactive) in assay [3]; 89.3 µM (inactive) in assay [4]; > 100 µM (inactive) in assay [5]; 46.3 µM (inactive) in assay [6]. Also, the GI50 in assay [7] is 31.6 µM (inactive); in assay [8], 76.4 µM (inactive); in assay [9], 15.9 µM (inactive); in assay [10], > 100 µM (inactive); in assay [12], 13.8 µM (inactive); in assay [13], > 100 µM (inactive). For the same compound, the GI50 in assay [14] is 37.6 µM (inactive); in assay [15], > 100 µM (inactive); in assay [16] it was > 100 µM (inactive); in assay [17], 61.1 µM (inactive); in assay [18], 23.2 µM (inactive); in assay [19] it was 0.975 µM (active). Besides, in assay [20], the GI50 was 15.8 µM (inactive).
Consider `COc1cc(C(c2c(O)c3ccccc3oc2=O)c2c(O)c3ccccc3oc2=O)ccc1O`, for which the GI50 is 24.7 µM (inactive) in assay [1]; 20.2 µM (inactive) in [2]; 21.1 µM (inactive) in [3]; 19.9 µM (inactive) in [4]; 24.6 µM (inactive) in assay [5]; 19.3 µM (inactive) in assay [6]. Further, the GI50 in [7] is 17.2 µM (inactive); in assay [8] it was 33 µM (inactive); in [9], 33.7 µM (inactive); in assay [10], 21.6 µM (inactive); in assay [11] it was 39.4 µM (inactive); in [12] it was 20.9 µM (inactive). The GI50 was 35.1 µM (inactive) in assay [13]; 19.1 µM (inactive) in assay [14]; 27.7 µM (inactive) in assay [15]; 51.9 µM (inactive) in assay [16]; 11.3 µM (inactive) in assay [17]; 18.5 µM (inactive) in assay [18]. Moreover, the figures for the GI50 in [19] and in assay [20] were 21.5 µM (inactive) and 19.1 µM (inactive), respectively.
